From patent US20200392158A1, “INHIBITORS OF LEUCINE RICH REPEAT KINASE 2” (GLAXOSMITHKLINE INTELLECTUAL PROPERTY DEVELOPMENT LIMITED, priority 2017, published 2020) come the findings set out here.

Molecules are shown by their SMILES. pIC50: −log10 of the molar value.

In general, pIC50 refers to the IC50 on a negative log10 scale, so that one unit is a factor of ten.

T1 sequence (Q5S007 with tags, fused parts or gaps R50H): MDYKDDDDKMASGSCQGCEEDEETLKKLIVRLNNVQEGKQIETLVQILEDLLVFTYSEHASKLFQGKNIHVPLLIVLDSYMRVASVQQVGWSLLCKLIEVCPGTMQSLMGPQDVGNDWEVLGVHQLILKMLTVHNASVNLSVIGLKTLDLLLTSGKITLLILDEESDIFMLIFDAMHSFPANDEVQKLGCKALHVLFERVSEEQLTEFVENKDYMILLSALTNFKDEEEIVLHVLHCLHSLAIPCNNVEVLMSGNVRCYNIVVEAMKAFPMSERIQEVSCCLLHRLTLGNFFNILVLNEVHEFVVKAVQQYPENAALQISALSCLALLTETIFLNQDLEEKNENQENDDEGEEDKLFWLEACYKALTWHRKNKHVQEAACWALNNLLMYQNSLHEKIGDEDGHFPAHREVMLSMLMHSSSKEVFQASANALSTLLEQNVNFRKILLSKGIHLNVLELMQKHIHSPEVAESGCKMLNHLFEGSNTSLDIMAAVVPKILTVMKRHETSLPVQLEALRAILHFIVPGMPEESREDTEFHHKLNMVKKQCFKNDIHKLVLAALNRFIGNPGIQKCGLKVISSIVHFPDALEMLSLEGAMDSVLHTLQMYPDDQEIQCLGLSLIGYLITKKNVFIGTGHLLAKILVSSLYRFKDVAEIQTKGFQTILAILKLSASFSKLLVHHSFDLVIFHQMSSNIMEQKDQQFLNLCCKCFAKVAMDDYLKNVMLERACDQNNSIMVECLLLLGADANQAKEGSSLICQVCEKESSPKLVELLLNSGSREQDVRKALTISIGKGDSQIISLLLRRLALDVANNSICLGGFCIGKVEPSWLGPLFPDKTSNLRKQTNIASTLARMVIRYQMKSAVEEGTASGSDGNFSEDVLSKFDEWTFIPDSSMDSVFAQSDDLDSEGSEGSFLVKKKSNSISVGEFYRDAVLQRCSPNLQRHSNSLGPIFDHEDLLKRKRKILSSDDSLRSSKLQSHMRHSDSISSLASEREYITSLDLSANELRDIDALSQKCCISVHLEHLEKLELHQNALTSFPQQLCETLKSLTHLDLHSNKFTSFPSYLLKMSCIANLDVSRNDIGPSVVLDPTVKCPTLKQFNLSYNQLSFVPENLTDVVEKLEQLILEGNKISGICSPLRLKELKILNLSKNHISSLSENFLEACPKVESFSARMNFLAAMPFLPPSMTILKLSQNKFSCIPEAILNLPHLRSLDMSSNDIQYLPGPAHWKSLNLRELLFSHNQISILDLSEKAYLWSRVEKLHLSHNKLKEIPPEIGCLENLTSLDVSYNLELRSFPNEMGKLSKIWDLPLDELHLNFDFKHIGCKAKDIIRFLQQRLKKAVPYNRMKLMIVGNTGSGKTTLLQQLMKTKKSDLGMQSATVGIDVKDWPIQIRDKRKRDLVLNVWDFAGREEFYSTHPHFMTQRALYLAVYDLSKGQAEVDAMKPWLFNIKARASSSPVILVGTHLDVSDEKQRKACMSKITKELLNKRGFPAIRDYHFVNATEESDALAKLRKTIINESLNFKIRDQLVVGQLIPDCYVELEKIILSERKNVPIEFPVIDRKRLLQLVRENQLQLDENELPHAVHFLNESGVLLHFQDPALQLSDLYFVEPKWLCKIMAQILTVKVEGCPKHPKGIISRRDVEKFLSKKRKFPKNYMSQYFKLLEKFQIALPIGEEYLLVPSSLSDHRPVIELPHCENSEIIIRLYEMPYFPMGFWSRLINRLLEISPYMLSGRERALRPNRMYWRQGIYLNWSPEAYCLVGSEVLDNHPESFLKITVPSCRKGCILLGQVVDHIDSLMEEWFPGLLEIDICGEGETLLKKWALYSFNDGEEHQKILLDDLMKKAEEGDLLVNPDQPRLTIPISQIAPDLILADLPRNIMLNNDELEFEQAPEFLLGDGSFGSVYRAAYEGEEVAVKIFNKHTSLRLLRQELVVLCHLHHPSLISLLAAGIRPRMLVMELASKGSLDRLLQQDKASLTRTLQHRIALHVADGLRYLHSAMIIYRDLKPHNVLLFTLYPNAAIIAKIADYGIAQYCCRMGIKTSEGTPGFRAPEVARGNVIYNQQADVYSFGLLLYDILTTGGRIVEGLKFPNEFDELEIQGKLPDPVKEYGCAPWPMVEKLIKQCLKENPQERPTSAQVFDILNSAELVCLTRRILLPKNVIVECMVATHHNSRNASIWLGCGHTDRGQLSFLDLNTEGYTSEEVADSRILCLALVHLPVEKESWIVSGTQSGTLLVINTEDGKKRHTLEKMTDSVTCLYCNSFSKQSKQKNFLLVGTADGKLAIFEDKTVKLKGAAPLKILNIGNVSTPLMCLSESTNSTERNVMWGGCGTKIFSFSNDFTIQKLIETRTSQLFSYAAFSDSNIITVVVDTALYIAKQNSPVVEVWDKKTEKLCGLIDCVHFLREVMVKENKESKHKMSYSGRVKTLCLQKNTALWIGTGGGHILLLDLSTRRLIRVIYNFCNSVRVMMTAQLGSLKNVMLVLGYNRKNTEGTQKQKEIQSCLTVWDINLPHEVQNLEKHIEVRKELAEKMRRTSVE

This assay addresses T1, full length G2019 human LRRK2 (Homo sapiens, UniProt Q5S007, R50H).
T1 construct: made in house; host or cells: HEK293 6E cells transduced with BacMam virus (virus generated in Sf9 cells)
Nature of the assay: Full length G2019 human LRRK2 inhibition mass spectrometry assay. In kind it is biochemical. As to conditions: LRRKtide to phospho-LRRKtide conversion, RapidFire MS, 2 mM ATP. The method, then:
a. Full Length G2019 Human LRRK2 Inhibition Mass Spectrometry Assay
This assay for Leucine Rich Repeat Kinase 2 (LRRK2) inhibition is based on the direct measurement of the peptide ‘LRRKtide’ (LRRKtide: RLGRDKYKT*LRQIRQ and “*” refers to the site of phosphorylation.) and phosphorylated ‘LRRKtide’ using a high throughput Rapid Fire mass spectrometry assay. Inhibitors are compounds that reduce the conversion of LRRKtide to phospho-LRRKtide.
• 1) Compounds were dissolved in 100% DMSO at a concentration of 10 mM, and 11-point dose response curves generated using a 1 in 4 serial dilution in DMSO. 100 nL of this dilution series was then added to a 384 well, v bottom polypropylene plate (Greiner 781280), excluding columns 6 and 18. 100 nL of DMSO were added to column 6 to serve as the high control, while column 18 served as the low control containing assay buffer in place of the LRRK2 protein. Assay dilution gave a top final assay concentration of test compound of […] • 2) 5 μL of ‘enzyme solution’ containing 2× final assay concentration of purified recombinant Full length Flag-LRRK2 in assay buffer (50 mM Hepes, pH 7.2, 10 mM MgCl2, 150 mM NaCl, 5% glycerol, 0.0025% Triton X-100 and 1 mM DTT) were added to all wells using a Multidrop Combi dispenser (ThermoFisher Scientifiec), giving a final assay concentration of 25 nM LRRK2 enzyme (final concentration may vary depending on specific activity of different enzyme batches). • 3) 5 μL of substrate solution containing 50 μM LRRKtide peptide substrate and […] was added to all wells of the plate using a Multidrop Combi dispenser giving a final assay concentration of 25 μM LRRKtide peptide and 2 mM ATP. Test plates were then incubated for 1 hour at room temperature. (Incubation may vary depending on rate and linearity of reaction with different enzyme batches). • 4) 50 μl of 1% formic acid in laboratory grade water was added to all wells to quench the reaction, and plates were heat-sealed prior to centrifugation at 1348×g for 10 minutes. Test plates were then analysed on an Agilent RapidFire High Throughput solid phase extraction system coupled to AB Sciex API 4000 triple quadropole mass spectrometer with the following setting:
• Sip Height=2 mm, Aspirate=500 ms, Load time=3000 ms, Elution time=3000 ms, Requilibration=500 ms. • Flow rates: pump 1=1.5 mL/min, pump 2 1.25 mL/min pump 3=0.8 mL/min
Mass Spectrometer Settings: • LRRKtide Detection settings: Q1 mass 644.8 Da, Q3 mass 638.8, declustering potential 76 volts, collision energy 37 volts, CXP 34 volts. • Phospho-LRRKtide Detection settings: Q1 mass 671.4 Da, Q3 mass 638.8, Declustering potential 76 volts, Collision energy 37 volts, CXP 34 volts. • A C4 cartridge was used and running buffers were: A (aqueous) 0.1% formic acid in water B (organic) 0.1% formic acid, 80% acetonitrile, 20% water. • Collision gas: 12, Curtain gas: 25, Ion Source gas (1): 60, Ion Source gas (2): 60, Ion Spray Voltage: 5500, Temperature: 600, Interface Heater: ON. • Resolution Q1: low, Resolution Q3: low. • 5) Data were analysed using ActivityBase software (IDBS). A percent conversion from LRRKtide to Phospho-LRRKtide was calculated using the following formula:
% conversion=(Phospho-LRRKtide product peak area/(Phospho-LRRKtide product peak area+LRRKtide substrate peak area))*100 • A logistic 4 parameter curve fit was applied, using the following formula,
[formula] • Where x is the concentration of test sample, y is inhibition (%), a is the minimum, b is the Hill slope, c is the IC50 and d is the maximum. From this, the pIC50 was derived (−log IC50).
`Cc1c2c(nn1C1COCCC1(F)F)OCCCNc1nc(ncc1Cl)N2` (single isomer, unassigned) [E303, 14-Chloro-5-(4,4-difluorooxan-3-yl)-4-methyl-8-oxa-2,5,6,12,16,17-hexaazatricyclo[11.3.1.0^3,7]heptadeca-1(16),3,6,13(17),14-pentaene] showed a pIC50 of at least 5.00.

On to `COCCN1CCC(n2nc3c(c2C)Nc2ncc(Cl)c(n2)NCCCO3)C(F)C1` (single isomer, unassigned) [E60, trans-14-chloro-5-[3-fluoro-1-(2-methoxyethyl)piperidin-4-yl]-4-methyl-8-oxa-2,5,6,12,16,17-hexaazatricyclo[11.3.1.0^3,7]heptadeca 1(16),3,6,13(17),14-pentaene], for which the negative logarithm of the IC50 (pIC50) was at least 7.00. With `Cc1c2c(nn1C1CC3CCC(C1)O3)OCCC(C)Nc1nc(ncc1Cl)N2` (single isomer, unassigned) [E251, 14-Chloro-4,11-dimethyl-5-{8-oxabicyclo[3.2.1]octan-3-yl}-8-oxa-2,5,6,12,16,17-hexaazatricyclo[11.3.1.0^3,7] heptadeca-1(16),3,6,13(17),14-pentaene] the figure was at least 7.00. Take `Cc1c2c(nn1CCN1CCOCC1)OCCC(C)Nc1nc(ncc1Cl)N2` (single isomer, unassigned) [E212, 14-Chloro-4,11-dimethyl-5-[2-(morpholin-4-yl)ethyl]-8-oxa-2,5,6,12,16,17-hexaazatricyclo[11.3.1.0^3,7] heptadeca-1(16),3,6,13(17),14-pentaene]: the pIC50 was at least 5.00.

Molecule `Cc1c2c(nn1C1CCOCC1)OCC(C)C(C)Nc1nc(ncc1Cl)N2` (single isomer, unassigned) [E34, 14-chloro-4,10,11-trimethyl-5-(oxan-4-yl)-8-oxa-2,5,6,12,16,17-hexaazatricyclo [11.3.1.0^3,7]heptadeca-1(16),3,6,13(17),14-pentaene] had a pIC50 of at least 5.00. The same measure for `COC1CNc2nc(ncc2Cl)Nc2c(nn(CC3CCOCC3)c2C)OC1` (single isomer, unassigned) [E275, 14-Chloro-10-methoxy-4-methyl-5-(oxan-4-ylmethyl)-8-oxa-2,5,6,12,16,17-hexaazatricyclo[11.3.1.0^3,7] heptadeca-1(16),3,6,13(17),14-pentaene]: at least 5.00; for `Cc1c2c(nn1C1CCOCC1)OCCC(C(F)(F)F)Nc1nc(ncc1Cl)N2` (single isomer, unassigned) [E193, 14-Chloro-4-methyl-5-(oxan-4-yl)-11-(trifluoromethyl)-8-oxa-2,5,6,12,16,17-hexaazatricyclo[11.3.1.0^3,7] heptadeca-1(16),3,6,13(17),14-pentaene]: at least 5.00. The same measure for `Cc1c2c(nn1C1CC(N3CCC(F)(F)C3)C1)OCCC(C)Nc1nc(ncc1Cl)N2` (single isomer, unassigned) [E316, 14-Chloro-5-[3-(3,3-difluoropyrrolidin-1-yl)cyclobutyl]-4,11-dimethyl-8-oxa-2,5,6,12,16,17-hexaazatricyclo [11.3.1.0^3,7]-heptadeca-1(16),3,6,13(17),14-pentaene]: at least 7.00; for `Cc1c2c(nn1CCN1C[C@H]3C[C@@H]1CO3)OCCC(C)Nc1nc(ncc1Cl)N2` (single isomer, unassigned) [E211]: at least 5.00; for `Clc1cnc2nc1NCCCOc1nn(C3CCOCC3)c(C3CC3)c1N2` [E147, 14-Chloro-4-cyclopropyl-5-(oxan-4-yl)-8-oxa-2,5,6,12,16,17-hexaazatricyclo[11.3.1.0^3,7]heptadeca-1(16),3,6,13(17),14-pentaene]: at least 5.00.

In the case of `Cc1c2c(nn1C1CCOCC1C)OCCCNc1nc(ncc1Cl)N2` (single isomer, unassigned) [E141, 14-chloro-4-methyl-5-(3-methyloxan-4-yl)-8-oxa-2,5,6,12,16,17-hexaazatricyclo[11.3.1.0^3,7]heptadeca-1(16),3,6,13(17),14-pentaene], the pIC50 was at least 7.00.

With `CCC1CCOc2nn(C3CCOCC3)c(C)c2Nc2ncc(Cl)c(n2)N1` (single isomer, unassigned) [E19, 14-chloro-11-ethyl-4-methyl-5-(oxan-4-yl)-8-oxa-2,5,6,12,16,17-hexaazatricyclo[11.3.1.0^3,7]heptadeca-1(16),3,6,13(17),14-pentaene], the pIC50 was at least 5.00. As for `N#Cc1cnc2nc1NCCCOc1n[nH]c(Cl)c1N2` [E426, 4-Chloro-8-oxa-2,5,6,12,16,17-hexaazatricyclo[11.3.1.0^3,7]heptadeca-1(16),3,6,13(17),14-pentaene-14-carbonitrile], the pIC50 is at least 5.00. With `Cc1c2c(nn1C1CCOCC1)OCC(C)C(C)Nc1nc(ncc1Cl)N2` (single isomer, unassigned) [E31, 14-chloro-4,10,11-trimethyl-5-(oxan-4-yl)-8-oxa-2,5,6,12,16,17-hexaazatricyclo [11.3.1.0^3,7]heptadeca-1(16),3,6,13(17),14-pentaene] the figure was at least 7.00; with `COC1CNc2nc(ncc2Cl)Nc2c(nn(C3CCC(C(F)(F)F)CC3)c2C)OC1` (single isomer, unassigned) [E279, 14-Chloro-10-methoxy-4-methyl-5-[4-(trifluoromethyl)cyclohexyl]-8-oxa-2,5,6,12,16,17-hexaazatricyclo [11.3. 1.0^3,7]heptadeca-1(16),3,6,13(17),14-pentaene], at least 5.00.

With `Cc1c2c(nn1CCN1CCC(F)C1)OCCC(C)Nc1nc(ncc1Cl)N2` (single isomer, unassigned) [E217, 14-Chloro-5-[2-(3-fluoropyrrolidin-1-yl)ethyl]-4,11-dimethyl-8-oxa-2,5,6,12,16,17-hexaazatricyclo [11.3.1.0^3,7] heptadeca-1(16),3,6,13(17),14-pentaene], the pIC50 is at least 5.00. With `Cc1c2c(nn1C1CC(N3CCC(F)(F)C3)C1)OCCC(C)Nc1nc(ncc1Cl)N2` (single isomer, unassigned) [E315, 14-Chloro-5-[3-(3,3-difluoropyrrolidin-1-yl)cyclobutyl]-4,11-dimethyl-8-oxa-2,5,6,12,16,17-hexaazatricyclo [11.3.1.0^3,7]-heptadeca-1(16),3,6,13(17),14-pentaene] the figure was at least 5.00.

Molecule `Cc1c2c(nn1C1CN(C3COC3)CCC1F)OCC[C@@H](C)Nc1nc(ncc1Cl)N2` (single isomer, unassigned) [E404] gave a pIC50 of at least 7.00. Consider `COCC1CCOc2nn(C3CCOCC3)c(C)c2Nc2ncc(Cl)c(n2)N1` (single isomer, unassigned) [E36, 14-chloro-11-(methoxymethyl)-4-methyl-5-(oxan-4-yl)-8-oxa-2,5,6, 12,16,17-hexaazatricyclo-[11.3.1.0^3,7]heptadeca-1(16),3,6,13(17),14-pentaene], for which the pIC50 was at least 7.00. On to `Cc1c2c(nn1C1CCOC1)OCCCNc1nc(ncc1C(F)(F)F)N2` (single isomer, unassigned) [E128, 4-methyl-5-(oxolan-3-yl)-14-(trifluoromethyl)-8-oxa-2,5,6,12,16,17-hexaazatricyclo[11.3.1.0^3,7]heptadeca-1(16),3,6,13(17),14-pentaene], for which the pIC50 was at least 7.00. The same measure for `Cc1c2c(nn1C1CCC(N3C[C@@H]4C[C@H]3CO4)CC1)OCCC(C)Nc1nc(ncc1Cl)N2` (single isomer, unassigned) [E105]: at least 7.00; for `Cc1c2c(nn1C1CCC(N3C[C@@H]4C[C@H]3CO4)CC1)OCCCNc1nc(ncc1Cl)N2` (single isomer, unassigned) [E51]: at least 7.00.
